This is an account of results in patent publication US20230277508A1, “USE OF COMPOUND AS CYP2E1 INHIBITOR” (SHANGHAI LING XI BIOTECHNOLOGY DEVELOPMENT CO., LTD., priority 2020, published 2023).

Series [1] has as its system blood glucose level in diabetes rats. The series can be described thus: Diabetes rat model induced by a high-fat diet and STZ. The class given is in vivo. The protocol:
Experimental method: A diabetes rat model was constructed by a high-fat diet+single intraperitoneal injection of STZ (40 mg/kg). A FBG level of higher than or equal to 16.7 mmol/L after two weeks of molding was a criterion for successful molding. Modeled rats were divided into various groups according to the blood glucose level. Rats in a model group were administered with NS, and rats in SMI0 low-dose and high-dose intervention groups were administered with the compound SMI0 at 30 mg/kg and 150 mg/kg every day, respectively. The FBG level in rats was determined and recorded regularly every week until the sixth week after administration. 10 rats were provided in each group.

Series [2] relates to A549 lung cancer cells / M2 macrophages. As to the kind of experiment: Proliferation of A549 cells co-cultivated with M2 macrophages (conditional media, CCK8). Format: cell-based, human. Conditions: SMI0 50 μmol/L during M2 induction, vs M2 macrophage co-cultivation group, P<0.05. The protocol:
Experimental method: PMA was used at […] to induce the transformation of human monocytic leukemia cells THP-1 into MO macrophages, and then IL-4 and IL-13 were used at 20 ng/mL to induce the transformation of MO macrophages into M2 macrophages. A supernatant was collected to establish a co-cultivation system with an A549 lung cancer cell, thereby simulating a M2-type macrophage microenvironment of lung cancer. In the SMI0 intervention group, SMI0 (50 μmol/L) was added for intervention while interleukin was added for induction. Culture supernatants of the MO macrophages, M2 macrophages, and SMI0 intervention group were collected to prepare conditional media. […] cells/mL, then 100 μL of each of different conditional media was added to each well, and 24 h later, 10 μL of a CCK8 reagent was added to each well; and the cells were further cultivated for 2 h, and an absorbance OD value of each well was determined at 450 nm by a microplate reader. 3 replicates were set for each well, and an average was taken. The proliferation activity was calculated based on the OD value.

Series [3] deals with T1, CYP2A6 (Homo sapiens, UniProt P11509).
T1 construct: With a mixed liver microsome of a healthy individual as a research object; from tissue; host or cells: mixed (pooled) human liver microsomes of healthy individuals
The series can be described thus: Determination of selectivity of a CYP2E1 inhibitor: CYP2A6. The class given is biochemical. The following applies: mixed human liver microsome, 2.5 μM coumarin probe; read-out: IC50 for 2A6 inhibition. The text has this:
With a mixed liver microsome of a healthy individual as a research object, probe drugs CYP1A2, CYP2A6, CYP2B6, CYP2C8, CYP2C9, CYP2C19, CYP2D6, CYP2E1, and CYP3A4 were selected to determine an in vitro inhibitory effect of an inhibitor to be tested on the metabolism of the probe drugs CYP1A2, CYP2A6, CYP2B6, CYP2C8, CYP2C9, CYP2C19, CYP2D6, CYP2E1, and CYP3A4 for the mixed liver microsome of the healthy human, and the selectivity of the inhibitor to be tested for a CYP2E1 inhibitory effect was evaluated.
The CYP1A2 probe is 6.25 μM to 800 μM phenacetin or 27.5 μM to 12,520 μM caffeine; • the CYP2A6 probe is 0.156 μM to 20 μM coumarin or 12.5 μM to 2,000 μM nicotine; • the CYP2B6 probe is 7.8 μM to 500 μM bupropion or 0.25 mM to 30 mM cyclophosphamide; • the CYP2C8 probe is 2.5 μM to 80 μM paclitaxel or 0.125 μM to 128 μM amodiaquine; • the CYP2C9 probe is 31.25 μM to 2,000 μM tolbutamide or 0.1 μM to 200 μM diclofenac; • the CYP2C19 probe is 3.9 μM to 500 μM omeprazole or 1.95 μM to 1,000 μM mephenytoin; • the CYP2D6 probe is 0.625 μM to 96 μM dextromethorphan or 0.0195 μM to 80 μM propafenone; and • the CYP3A4 probe is 0.39 μM to 50 μM midazolam or 1.98 μM to 1,000 μM testosterone.
An incubation system in a total volume of 100 μL was adopted, including a substrate, an inhibitor of different concentrations, a liver microsomal protein, and PBS. […]

Series [4] addresses T2, CYP2E1 (Mus musculus, UniProt Q05421).
T2 construct: from tissue; host or cells: liver microsomes of treated model mice (calcium precipitation)
As to the kind of experiment: CYP2E1 activity (liver microsome) in in situ transplanted mouse glioma model. The class given is in vivo. The following applies: SMI0 intervention group vs model group, P<0.001. The protocol: Experimental method: A calcium precipitation method was used to prepare a mouse liver microsome, and a Braford method was used to determine a protein concentration in the microsome. An incubation system was prepared with 2×PBS, a CZX solution, and the liver microsome at a final concentration of 0.5 mg/mL, and then pre-incubated at 37° C. for 5 min; NADPH was added to initiate a reaction, and a resulting mixture was incubated at 37° C. for 30 min and then placed on ice to terminate the reaction; and ethyl acetate was added to extract 6-hydroxychlorzoxazone, a resulting mixture was vortexed and centrifuged, and a resulting upper organic phase was collected and blow-dried with nitrogen. A peak area of a CZX metabolite 6-hydroxychlorzoxazone was detected by HPLC under the following conditions: methanol:water=56:44, and detection wavelength: 287 nm. A concentration A C of the metabolite 6-hydroxychlorzoxazone was calculated through substitution into a standard curve; and a reaction rate of conversion of CZX into 6-hydroxychlorzoxazone was calculated according to V(pmol/min/mg)=(ΔC*1000)/(B*T) to evaluate an enzymatic activity of CYP2E1, where B represents a protein concentration of the microsome (mg/mL) and T represents an incubation time (min). A correlation between CYP2E1 activity and tumor size in the mouse glioma model was analyzed.

T2 sequence (Q05421 whole entry): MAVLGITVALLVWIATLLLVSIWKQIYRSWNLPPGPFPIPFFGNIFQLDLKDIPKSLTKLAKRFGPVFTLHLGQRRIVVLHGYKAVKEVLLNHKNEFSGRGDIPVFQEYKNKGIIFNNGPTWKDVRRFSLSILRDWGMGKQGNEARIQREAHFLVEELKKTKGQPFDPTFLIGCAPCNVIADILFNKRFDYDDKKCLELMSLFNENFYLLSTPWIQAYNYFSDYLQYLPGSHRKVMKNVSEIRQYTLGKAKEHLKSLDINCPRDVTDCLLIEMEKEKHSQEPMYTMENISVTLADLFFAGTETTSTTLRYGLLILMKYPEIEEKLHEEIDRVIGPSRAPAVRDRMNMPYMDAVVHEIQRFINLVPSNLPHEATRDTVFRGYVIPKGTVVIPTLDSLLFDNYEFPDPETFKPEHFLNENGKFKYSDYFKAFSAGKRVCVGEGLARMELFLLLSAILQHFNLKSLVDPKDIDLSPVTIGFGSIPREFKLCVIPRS
T1 sequence (P11509 whole entry): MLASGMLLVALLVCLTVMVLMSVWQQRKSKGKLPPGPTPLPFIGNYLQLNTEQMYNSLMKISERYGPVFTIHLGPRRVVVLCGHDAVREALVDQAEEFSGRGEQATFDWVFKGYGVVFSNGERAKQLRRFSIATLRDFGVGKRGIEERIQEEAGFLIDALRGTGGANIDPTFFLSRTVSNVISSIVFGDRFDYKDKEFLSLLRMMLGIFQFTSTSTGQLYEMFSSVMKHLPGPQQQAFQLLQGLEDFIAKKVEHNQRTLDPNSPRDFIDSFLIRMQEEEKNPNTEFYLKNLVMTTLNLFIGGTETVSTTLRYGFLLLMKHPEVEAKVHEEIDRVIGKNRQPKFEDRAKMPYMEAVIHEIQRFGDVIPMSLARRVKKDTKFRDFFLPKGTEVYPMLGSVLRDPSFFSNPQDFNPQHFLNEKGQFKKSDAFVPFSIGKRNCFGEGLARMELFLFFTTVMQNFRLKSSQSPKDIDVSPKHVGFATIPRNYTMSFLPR

As for `CC(=O)c1scnc1C` [SMI0], the FBG levels entry in series [1] (SMI0 low-dose (30 mg/kg) and high-dose (150 mg/kg) daily, weeks 5 and 6, vs model group, P<0.05) was “significantly reduced”. Further, the glucose tolerance entry in series [1] (glucose tolerance test, SMI0 30 and 150 mg/kg daily) was “significantly improved”. Besides, in series [2], the “proliferation activity of A549 cells” value is listed as “significantly weakened”. Besides, the IC50 in series [3] came out at 76.2 µM. Further, in series [4], the CYP2E1 activity result is reported as “significantly reduced”.
